# Experimental data taken from publication PMC11790914, “Chemogenomics for steroid hormone receptors (NR3)” (Communications Chemistry, 2025).
# Where “and” joins values, the source holds several entries; their conditions need not be identical. Equal entries are not always repeated. Entries after “also recorded” stand apart in the source; their conditions may differ.
# What was measured:
# TRIM24 = biological target: T1, TRIM24 (Homo sapiens, UniProt O15164); assay: Liability panel screening by DSF: TRIM24; assay type: binding; details: DSF, 20 µM, n=2; read-out: Mean ΔTM TRIM24
# T1 construct: This panel comprised ten highly ligandable kinases and bromodomains; made in house
# T1 sequence (O15164 899-1004 limits assumed): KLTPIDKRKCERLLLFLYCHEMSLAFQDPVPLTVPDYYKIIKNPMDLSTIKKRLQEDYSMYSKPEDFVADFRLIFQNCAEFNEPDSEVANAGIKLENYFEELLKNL
# Outline: (§1)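 Thermal shift: in-house recombinant protein at 2 µM in 10 mM HEPES pH 7.5 with 500 mM NaCl, SYPRO Orange 1:1000, heated at 3 °C/min to 85 °C in technical duplicates. Tm is the Boltzmann inflection point, reported as ∆Tm in K.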
# BRPF1 = biological target: T2, BRPF1 (Homo sapiens, UniProt P55201); assay: Liability panel screening by DSF: BRPF1; assay type: binding; details: DSF, 20 µM, n=2; read-out: Mean ΔTM BRPF1
# T2 construct: This panel comprised ten highly ligandable kinases and bromodomains; made in house
# T2 sequence (P55201 628-732 limits assumed): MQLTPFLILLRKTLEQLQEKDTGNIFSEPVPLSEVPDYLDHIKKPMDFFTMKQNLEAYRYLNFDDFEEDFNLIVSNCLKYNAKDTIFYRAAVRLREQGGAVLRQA
# Outline: as §1
# ABL1 = biological target: T3, ABL1 (Homo sapiens, UniProt P00519); assay: Liability panel screening by DSF: ABL1; assay type: binding; details: DSF, 20 µM, n=2; read-out: Mean ΔTM ABL1
# T3 construct: made in house
# Outline: as §1
# HEK293T cells [1] = assay: Cytotoxicity: metabolic activity (WST-8 / CCK-8 assay); details: single replicates
# Description: Cells were incubated with the test compounds at the indicated concentrations solubilized with 0.1% DMSO for 24 h. Growth-rate was determined based on the change in confluence over 24 h normalized to the change in confluence of cells treated with the 0.1% DMSO control (n = 10). Metabolic activity was determined with a water-soluble tetrazolium-8 (WST-8) assay (n = 8) after 24 h treatment. Apoptotic cells were detected with a fluorogenic DNA dye coupled to the caspase-3/7 recognition sequence (DEVD) after 24 h treatment and the apoptotic cell count was normalized to 0.1% DMSO treated cells (n = 6).
# HEK293T cells (German Collection of Microorganisms and Cell Culture GmbH, DSMZ; #ACC305) were cultured in DMEM high glucose, supplemented with 10% fetal calf serum (FCS), sodium pyruvate (1 mM), penicillin (100 µ/mL) and streptomycin (100 µg/mL) at 37 °C and 5% (v/v) CO2, and seeded in pre-coated (10 µg/mL collagen G solution (Merck KgaA; #L7213) for 30 min at 37 °C) 96-well plates (2 × 10^5 cells per well). After 24 h, the cells were treated with the respective NR3 CG compound candidate at the recommended concentration, bexarotene (100 µM) or doxorubicin (30 µM) as positive controls in DMEM high glucose supplemented with 0.1% FCS, penicillin (100 µ/mL), streptomycin (100 µg/mL) and 0.1% DMSO, or 0.1% DMSO alone as an untreated control. Each sample was prepared in at least four biologically independent replicates. […] Thereafter, the medium was aspirated and the cells were incubated for 3 h with 90 µL DMEM high glucose supplemented with 0.2% FCS, penicillin (100 µ/mL) and streptomycin (100 µg/mL) and additionally containing 10 µL Cell Counting Kit 8 solution (CCK-8; MedChemExpress, Monmouth Junction, New York, USA; #HY-K0301), and absorbance was measured at 1 h, 2 h and 3 h of incubation at 450 nm on a Tecan Spark Cyto to assess metabolic activity of the cells. Before drug administration, after the first medium exchange, 24 h after drug administration, and after fluorescence imaging cell confluence was assessed using the Tecan Spark Cyto, to account for changes in cell confluence due to drug administration and cell handling. Compound effects on cell confluence, apoptosis, metabolic activity and necrosis were normalized to the vehicle control of each biological replicate individually.
# HEK293T cells [2] = assay: Cytotoxicity: growth-rate (change in confluence over 24 h); details: normalized to 0.1% DMSO control, single replicates (n=1...)
# HEK293T cells [3] = assay: Cytotoxicity: apoptosis induction (caspase-3/7 DEVD fluorogenic DNA dye); details: single replicates
# CDK2 = biological target: T4, CDK2 (Homo sapiens, UniProt P24941); assay: Liability panel screening by DSF: CDK2; assay type: binding; details: DSF, 20 µM, n=2; read-out: Mean ΔTM CDK2
# T4 construct: made in house
# Outline: as §1
# CSNK1D = biological target: T5, CSNK1D (Homo sapiens, UniProt P48730); assay: Liability panel screening by DSF: CSNK1D; assay type: binding; details: DSF, 20 µM, n=2; read-out: Mean ΔTM CSNK1D
# T5 construct: made in house
# Outline: as §1
# Gal4-VP16 = assay type: cell-based; details: 1 µM
# BRD4 = biological target: T6, BRD4 (Homo sapiens, UniProt O60885); assay: Liability panel screening by DSF: BRD4; assay type: binding; details: DSF, 20 µM, n=2; read-out: Mean ΔTM BRD4
# T6 construct: This panel comprised ten highly ligandable kinases and bromodomains; made in house
# Outline: as §1
# MAPK1 = biological target: T7, MAPK1 (Homo sapiens, UniProt P28482); assay: Liability panel screening by DSF: MAPK1; assay type: binding; details: DSF, 20 µM, n=2; read-out: Mean ΔTM MAPK1
# T7 construct: made in house
# Outline: as §1
# GSK3B = biological target: T8, GSK3B (Homo sapiens, UniProt P49841); assay: Liability panel screening by DSF: GSK3B; assay type: binding; details: DSF, 20 µM, n=2; read-out: Mean ΔTM GSK3B
# T8 construct: made in house
# FGFR3 = biological target: T9, FGFR3 (Homo sapiens, UniProt P22607); assay: Liability panel screening by DSF: FGFR3; assay type: binding; details: DSF, 20 µM, n=2; read-out: Mean ΔTM FGFR3
# T9 construct: made in house
# Outline: as §1
# [4] = tested on: NF-κB activity in HEK293 NF-κB reporter cells; assay: NF-kB activity assay (GFP reporter, ionomycin/PMA); assay type: cell-based; details: n=3
# Outline: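 Reporter readout: GFP-expressing cells normalized to confluence, imaged every 90 min across 24 h after ionomycin (100 ng/mL)/PMA (10 ng/mL) stimulation of HEK293 cells pre-treated 4 h with compound (0.1% DMSO); triplicate independent experiments.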
# [5] = tested on: ATF6 activity in Hela ATF6 reporter cells; assay: Endoplasmic reticulum stress assay (ATF6 Renilla luciferase reporter, tunicamycin); assay type: cell-based
# Outline: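 ER stress was induced by 100 ng/mL tunicamycin added 4 h after compound (0.1% DMSO) to HeLa ATF6 reporter cells. After 18 h more, Renilla luciferase signal was read and expressed relative to DMSO control, n=5 biological replicates.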
# HEK293T cells [6] = assay: Cytotoxicity: necrosis induction (red fluorescent dye for permeable plasma membranes); assay type: cell-based; details: 24 h, necrotic cell count normalized to 0.1% DMSO, single replicates;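 note: compounds applied in DMEM high glucose with 0.1% FCS and 0.1% DMSO, necrotic HEK293T cells counted by red staining of cells whose plasma membranes had become permeable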
# T3 sequence (P00519 whole entry, species assumed): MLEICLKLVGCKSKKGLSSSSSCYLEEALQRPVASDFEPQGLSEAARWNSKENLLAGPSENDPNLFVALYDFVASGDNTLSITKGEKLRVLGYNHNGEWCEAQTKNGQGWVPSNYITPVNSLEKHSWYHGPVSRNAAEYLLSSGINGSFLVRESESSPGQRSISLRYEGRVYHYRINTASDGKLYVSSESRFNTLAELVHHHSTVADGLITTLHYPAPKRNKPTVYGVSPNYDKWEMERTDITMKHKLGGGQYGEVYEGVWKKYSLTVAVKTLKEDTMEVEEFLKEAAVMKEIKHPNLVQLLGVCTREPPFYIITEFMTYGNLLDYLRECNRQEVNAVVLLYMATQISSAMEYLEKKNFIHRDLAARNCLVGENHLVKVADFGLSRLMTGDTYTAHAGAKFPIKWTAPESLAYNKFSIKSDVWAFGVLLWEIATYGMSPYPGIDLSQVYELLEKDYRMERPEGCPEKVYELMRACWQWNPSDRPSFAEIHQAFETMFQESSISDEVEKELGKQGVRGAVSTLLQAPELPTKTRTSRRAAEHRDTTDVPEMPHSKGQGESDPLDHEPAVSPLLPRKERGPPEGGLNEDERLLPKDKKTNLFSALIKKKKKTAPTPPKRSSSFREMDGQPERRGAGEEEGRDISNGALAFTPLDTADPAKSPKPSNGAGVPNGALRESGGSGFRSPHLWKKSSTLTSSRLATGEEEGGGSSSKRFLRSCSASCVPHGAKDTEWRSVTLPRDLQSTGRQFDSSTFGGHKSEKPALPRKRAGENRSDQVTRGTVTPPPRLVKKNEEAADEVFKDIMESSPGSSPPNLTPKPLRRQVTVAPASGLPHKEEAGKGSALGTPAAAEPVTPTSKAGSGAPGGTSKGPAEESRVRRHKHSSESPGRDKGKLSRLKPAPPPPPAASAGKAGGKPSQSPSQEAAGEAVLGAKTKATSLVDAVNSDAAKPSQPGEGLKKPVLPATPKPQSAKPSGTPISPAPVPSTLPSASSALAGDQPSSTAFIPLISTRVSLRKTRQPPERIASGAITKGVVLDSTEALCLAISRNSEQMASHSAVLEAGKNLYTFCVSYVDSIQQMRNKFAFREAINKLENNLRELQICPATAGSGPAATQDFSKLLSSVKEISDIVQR
# T9 sequence (P22607 23-806, species assumed): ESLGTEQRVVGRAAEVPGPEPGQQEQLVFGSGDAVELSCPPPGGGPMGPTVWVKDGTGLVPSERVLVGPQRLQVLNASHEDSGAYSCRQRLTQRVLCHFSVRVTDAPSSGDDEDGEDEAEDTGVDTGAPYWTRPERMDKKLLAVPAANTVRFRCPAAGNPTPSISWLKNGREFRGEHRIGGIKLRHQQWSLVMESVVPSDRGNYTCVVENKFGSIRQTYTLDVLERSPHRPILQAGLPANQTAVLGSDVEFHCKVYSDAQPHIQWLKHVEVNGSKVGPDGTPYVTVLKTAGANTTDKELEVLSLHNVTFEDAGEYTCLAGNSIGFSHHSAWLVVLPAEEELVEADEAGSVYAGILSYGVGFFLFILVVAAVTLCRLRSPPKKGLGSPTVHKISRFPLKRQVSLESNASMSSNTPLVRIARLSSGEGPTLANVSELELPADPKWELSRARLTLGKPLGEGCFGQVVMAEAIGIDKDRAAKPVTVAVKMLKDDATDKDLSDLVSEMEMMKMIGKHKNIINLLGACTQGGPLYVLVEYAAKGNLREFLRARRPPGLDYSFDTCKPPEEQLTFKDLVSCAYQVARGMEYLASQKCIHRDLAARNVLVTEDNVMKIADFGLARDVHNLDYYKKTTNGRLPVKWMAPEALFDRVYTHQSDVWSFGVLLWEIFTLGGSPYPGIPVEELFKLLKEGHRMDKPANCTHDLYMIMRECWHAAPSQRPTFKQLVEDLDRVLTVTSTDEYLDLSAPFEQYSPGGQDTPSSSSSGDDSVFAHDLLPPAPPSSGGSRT
# T8 sequence (P49841 whole entry, species assumed): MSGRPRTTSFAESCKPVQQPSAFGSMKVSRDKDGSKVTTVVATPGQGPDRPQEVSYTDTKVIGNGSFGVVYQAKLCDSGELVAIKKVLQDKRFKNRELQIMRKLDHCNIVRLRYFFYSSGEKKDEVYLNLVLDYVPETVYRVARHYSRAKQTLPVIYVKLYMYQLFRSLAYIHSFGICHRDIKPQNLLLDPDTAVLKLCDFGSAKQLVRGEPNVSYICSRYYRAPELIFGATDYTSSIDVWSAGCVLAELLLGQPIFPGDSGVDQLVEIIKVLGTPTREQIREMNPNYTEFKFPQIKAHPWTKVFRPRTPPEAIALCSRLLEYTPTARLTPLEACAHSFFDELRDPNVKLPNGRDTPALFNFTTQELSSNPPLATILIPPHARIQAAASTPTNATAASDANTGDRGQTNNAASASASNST
# T5 sequence (P48730 whole entry, species assumed): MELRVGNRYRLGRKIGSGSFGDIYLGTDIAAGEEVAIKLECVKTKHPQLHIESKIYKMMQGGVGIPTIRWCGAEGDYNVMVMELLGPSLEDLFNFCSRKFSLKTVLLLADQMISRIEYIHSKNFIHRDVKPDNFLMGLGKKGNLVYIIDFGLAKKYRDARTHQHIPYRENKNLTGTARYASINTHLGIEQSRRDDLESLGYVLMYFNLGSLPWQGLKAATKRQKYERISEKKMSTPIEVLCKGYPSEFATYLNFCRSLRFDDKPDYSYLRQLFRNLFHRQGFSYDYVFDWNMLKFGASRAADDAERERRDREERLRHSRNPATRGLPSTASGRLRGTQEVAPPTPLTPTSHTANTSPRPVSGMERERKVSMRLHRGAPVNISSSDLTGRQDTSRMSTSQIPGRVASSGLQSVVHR
# T7 sequence (P28482 whole entry, species assumed): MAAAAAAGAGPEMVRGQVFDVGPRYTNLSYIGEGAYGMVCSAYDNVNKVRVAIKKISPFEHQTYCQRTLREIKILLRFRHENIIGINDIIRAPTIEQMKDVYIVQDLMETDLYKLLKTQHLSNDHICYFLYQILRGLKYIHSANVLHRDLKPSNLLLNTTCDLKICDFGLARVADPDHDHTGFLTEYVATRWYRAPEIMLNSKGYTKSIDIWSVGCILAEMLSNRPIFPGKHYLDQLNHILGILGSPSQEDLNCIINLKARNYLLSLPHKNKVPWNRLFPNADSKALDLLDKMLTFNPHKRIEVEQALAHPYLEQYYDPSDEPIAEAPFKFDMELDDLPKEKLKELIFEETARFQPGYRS
compound,measurement,setting,value
CC/C(=C(/c1ccc(/C=C/C(=O)O)cc1)c1ccc2[nH]ncc2c1)c1ccc(F)cc1Cl [ARN810],ΔTm at 20 µM,TRIM24,0 °C
same,ΔTm at 20 µM,BRPF1,0 °C
same,ΔTm at 20 µM,ABL1,-5.16 °C
same,Metabolic activity [MA],"HEK293T cells [1]; 1 µM, DMSO 0.1% = 1.00",0.99 and 1.09 and 0.98 and 0.97 and 1.01 and 1.03
same,Growth rate [GR],HEK293T cells [2]; 1 µM,0.88 and 0.90 and 1.13 and 0.87 and 1.11 and 0.85
same,Apoptosis induction [AI],"HEK293T cells [3]; 1 µM, DMSO 0.1% = 1.00",0.78 and 0.92
same,ΔTm at 20 µM,CDK2,-3.66 °C
same,ΔTm at 20 µM,CSNK1D,-4.37 °C
same,"VP16 control [fold reporter gene activity] (n=3), n=1",Gal4-VP16; replicate n=1,1.06 fold
same,"VP16 control [fold reporter gene activity] (n=3), n=2",Gal4-VP16; replicate n=2,1.05 fold
same,"VP16 control [fold reporter gene activity] (n=3), n=3",Gal4-VP16; replicate n=3,1.02 fold
same,ΔTm at 20 µM,BRD4,-0.16 °C
same,ΔTm at 20 µM,MAPK1,0 °C
same,ΔTm at 20 µM,GSK3B,3.37 °C
same,ΔTm at 20 µM,FGFR3,-5.4 °C
CC/C(=C(/CC)c1ccc(O)cc1)c1ccc(O)cc1 [Diethylstilbestrol],ΔTm at 20 µM,TRIM24,1.49 °C
same,ΔTm at 20 µM,BRPF1,-8.49 °C
same,ΔTm at 20 µM,ABL1,-0.96 °C
same,Metabolic activity [MA],"HEK293T cells [1]; 0.3 µM, HEK293T, 24 h, WST-8, normalized to 0.1% DMSO",1.04 (3×) and 0.90 and 0.95 and 1.03 and 0.96 and 1.14
same,Metabolic activity [MA],"HEK293T cells [1]; 3 µM, HEK293T, 24 h, WST-8, normalized to 0.1% DMSO",0.90 and 0.94 and 1.10 and 1.00 (2×) and 0.60 and 0.78
same,Mean NFκB response,"[4]; 0.3 µM, 1,5 h",2313.08 GFP+-cells/confluence ∙ 1000
same,Mean NFκB response,"[4]; 0.3 µM, 4,5 h",2949.70 GFP+-cells/confluence ∙ 1000
same,Mean NFκB response,"[4]; 0.3 µM, 7,5 h",7538.46 GFP+-cells/confluence ∙ 1000
same,Mean NFκB response,"[4]; 0.3 µM, 10,5 h",18701.55 GFP+-cells/confluence ∙ 1000
same,Mean NFκB response,"[4]; 0.3 µM, 13,5 h",27206.00 GFP+-cells/confluence ∙ 1000
same,Mean NFκB response,"[4]; 0.3 µM, 16,6 h",33288.00 GFP+-cells/confluence ∙ 1000
same,Mean NFκB response,"[4]; 0.3 µM, 19,5 h",37133.33 GFP+-cells/confluence ∙ 1000
same,Mean NFκB response,"[4]; 0.3 µM, 22,5 h",40576.67 GFP+-cells/confluence ∙ 1000
same,Mean NFκB response,"[4]; 0.3 µM, 3 h",2350.33 GFP+-cells/confluence ∙ 1000
same,Mean NFκB response,"[4]; 0.3 µM, 6 h",4223.97 GFP+-cells/confluence ∙ 1000
same,Mean NFκB response,"[4]; 0.3 µM, 9 h",13522.53 GFP+-cells/confluence ∙ 1000
same,Mean NFκB response,"[4]; 0.3 µM, 12 h",23340.33 GFP+-cells/confluence ∙ 1000
same,Mean NFκB response,"[4]; 0.3 µM, 15 h",30431.00 GFP+-cells/confluence ∙ 1000
same,Mean NFκB response,"[4]; 0.3 µM, 18 h",35400.00 GFP+-cells/confluence ∙ 1000
same,Mean NFκB response,"[4]; 0.3 µM, 21 h",39313.33 GFP+-cells/confluence ∙ 1000
same,Mean NFκB response,"[4]; 0.3 µM, 24 h",41536.67 GFP+-cells/confluence ∙ 1000
same,Mean NFκB response,"[4]; 3 µM, 1,5 h",2624.20 GFP+-cells/confluence ∙ 1000
same,Mean NFκB response,"[4]; 3 µM, 4,5 h",2942.05 GFP+-cells/confluence ∙ 1000
same,Mean NFκB response,"[4]; 3 µM, 7,5 h",5380.00 GFP+-cells/confluence ∙ 1000
same,Mean NFκB response,"[4]; 3 µM, 10,5 h",14690.00 GFP+-cells/confluence ∙ 1000
same,Mean NFκB response,"[4]; 3 µM, 13,5 h",22563.33 GFP+-cells/confluence ∙ 1000
same,Mean NFκB response,"[4]; 3 µM, 16,6 h",28276.67 GFP+-cells/confluence ∙ 1000
same,Mean NFκB response,"[4]; 3 µM, 19,5 h",33253.33 GFP+-cells/confluence ∙ 1000
same,Mean NFκB response,"[4]; 3 µM, 22,5 h",36776.67 GFP+-cells/confluence ∙ 1000
same,Mean NFκB response,"[4]; 3 µM, 3 h",2684.18 GFP+-cells/confluence ∙ 1000
same,Mean NFκB response,"[4]; 3 µM, 6 h",3410.00 GFP+-cells/confluence ∙ 1000
same,Mean NFκB response,"[4]; 3 µM, 9 h",9373.33 GFP+-cells/confluence ∙ 1000
same,Mean NFκB response,"[4]; 3 µM, 12 h",19050.00 GFP+-cells/confluence ∙ 1000
same,Mean NFκB response,"[4]; 3 µM, 15 h",25776.67 GFP+-cells/confluence ∙ 1000
same,Mean NFκB response,"[4]; 3 µM, 18 h",30966.67 GFP+-cells/confluence ∙ 1000
same,Mean NFκB response,"[4]; 3 µM, 21 h",34670.00 GFP+-cells/confluence ∙ 1000
same,Mean NFκB response,"[4]; 3 µM, 24 h",38090.00 GFP+-cells/confluence ∙ 1000
same,Growth rate [GR],HEK293T cells [2]; 0.3 µM,0.65 and 4.06 and 0.84 and 0.92 and 1.28 and 1.00 and 0.79 and 1.42 and 0.91 and 9.54
same,Growth rate [GR],HEK293T cells [2]; 3 µM,reduced the growth-rate and -0.21 and 0.65 and -0.29 and 0.04 and 0.36 and 0.21 and 0.28 and 1.17 and 0.46 and -0.41
same,Apoptosis induction [AI],"HEK293T cells [3]; 0.3 µM, HEK293T, 24 h, apoptotic cell count normalized to 0.1% DMSO",0.86 and 1.37 (2×) and 0.83 and 1.54 and 0.77
same,Apoptosis induction [AI],"HEK293T cells [3]; 3 µM, HEK293T, 24 h, apoptotic cell count normalized to 0.1% DMSO",0.65 and 0.97 and 0.69 and 0.85 and 1.67 and 1.65
same,ΔTm at 20 µM,CDK2,-5.57 °C
same,ATF6 activity (tunicamycin-induced endoplasmic reticulum stress),"[5]; Hela ATF6 reporter cells, tunicamycin 100 ng/mL, 18 h, compounds at recommended concentrations, n = 5",lacked this effect; also recorded: failed to reduce ATF6 activity
same,activity at 0.3 µM,"[5]; Homo sapiens, HeLa, 0.3 µM, single replicates n=1 to n=5, read-out: ER stress [rel. ATF6 activity]",98%
same,activity at 3 µM,"[5]; Homo sapiens, HeLa, 3 µM, single replicates n=1 to n=5, read-out: ER stress [rel. ATF6 activity]",98% and 101%
same,ΔTm at 20 µM,CSNK1D,-0.81 °C
same,ΔTm at 20 µM,BRD4,-4.78 °C
same,ΔTm at 20 µM,MAPK1,-12.2 °C
same,ΔTm at 20 µM,GSK3B,-3.54 °C
same,ΔTm at 20 µM,FGFR3,-8.29 °C
same,Necrosis induction [NI],HEK293T cells [6]; 0.3 µM,0.86 and 0.98 and 1.34
same,Necrosis induction [NI],HEK293T cells [6]; 3 µM,0.69 and 0.58 and 0.64 and 0.72
